Assay results reported in the supplement of paper PMC10307832.

Columns and labels:
Assay in all cases: relative viability (nuclei count vs DMSO), 5 days (fraction); higher = more cells survive
CUDC-101 + Pictilisib = compound: C#Cc1cccc(Nc2ncnc3cc(OC)c(OCCCCCCC(=O)NO)cc23)c1 [CUDC-101] + CS(=O)(=O)N1CCN(Cc2cc3nc(-c4cccc5[nH]ncc45)nc(N4CCOCC4)c3s2)CC1 [Pictilisib] (partner 1 µM)
How it was run: (§1)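 For relative viability, nuclei counts in treated wells were divided by those in vehicle wells. Lung cancer cell lines had been pin-tool dosed in 1536-well plates the day after seeding and cultured for 5 days, then fixed and stained in one step (final 0.05% Triton X-100, 1% formaldehyde, 1 ug/ml Hoechst) and imaged at 4×. Doses were one drug alone or a fixed anchor-drug dose plus five library-drug doses (not always all listed) in √10 steps, and values are duplicate-plate medians.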

[1] = compound: C1=CC=C2C(=C1)N=C(S2)C(C#N)C3=NC(=NC=C3)NCCC4=CN=CC=C4 + N=C(N)NC(=N)NCCc1ccccc1 [Phenformin] (partner 250 µM)
How it was run: as §1

CUDC-101 + Olaparib = compound: C#Cc1cccc(Nc2ncnc3cc(OC)c(OCCCCCCC(=O)NO)cc23)c1 [CUDC-101] + O=C(c1cc(Cc2n[nH]c(=O)c3ccccc23)ccc1F)N1CCN(C(=O)C2CC2)CC1 [Olaparib] (partner 8 µM)
How it was run: as §1

Vandetanib + AZD7762 = compound: COc1cc2/c(=N/c3ccc(Br)cc3F)nc[nH]c2cc1OCC1CCN(C)CC1 [Vandetanib] + NC(=O)Nc1cc(-c2cccc(F)c2)sc1C(=O)N[C@H]1CCCNC1 [AZD7762] (partner 0.2 µM)
How it was run: as §1

Cell Line | relative viability (CUDC-101 + Pictilisib; first compound 0.01 µM) | relative viability (CUDC-101 + Pictilisib; first compound 0.03162 µM) | relative viability (CUDC-101 + Pictilisib; first compound 0.1 µM) | relative viability (CUDC-101 + Pictilisib; first compound 0.3162 µM) | relative viability (CUDC-101 + Pictilisib; first compound 1 µM) | relative viability ([1]; first compound 0.005 µM) | relative viability ([1]; first compound 0.01581 µM) | relative viability ([1]; first compound 0.05 µM) | relative viability ([1]; first compound 0.1581 µM) | relative viability ([1]; first compound 0.5 µM) | relative viability (CUDC-101 + Olaparib; first compound 0.01 µM) | relative viability (CUDC-101 + Olaparib; first compound 0.03162 µM) | relative viability (CUDC-101 + Olaparib; first compound 0.1 µM) | relative viability (CUDC-101 + Olaparib; first compound 0.3162 µM) | relative viability (CUDC-101 + Olaparib; first compound 1 µM) | relative viability (Vandetanib + AZD7762; first compound 0.02 µM) | relative viability (Vandetanib + AZD7762; first compound 0.06325 µM) | relative viability (Vandetanib + AZD7762; first compound 0.2 µM) | relative viability (Vandetanib + AZD7762; first compound 0.6325 µM) | relative viability (Vandetanib + AZD7762; first compound 2 µM)
NCI-H661 | 0.477 | 0.422 | 0.476 | 0.487 | 0.358 | 0.231 | 0.255 | 0.291 | 0.291 | 0.277 | 0.795 | 0.69 | 0.632 | 0.611 | 0.437 | – | – | – | – | –
NCI-H1650 | 0.57 | 0.552 | 0.559 | 0.446 | 0.293 | 0.375 | 0.335 | 0.523 | 0.402 | 0.377 | 0.926 | 0.667 | 0.744 | 0.867 | 0.578 | – | – | – | – | –
NCI-H2009 | 0.813 | 0.824 | 0.963 | 0.917 | 0.699 | 0.466 | 0.477 | 0.476 | 0.508 | 0.437 | 0.698 | 0.694 | 0.697 | 0.615 | 0.646 | – | – | – | – | –
NCI-H1623 | – | – | – | – | – | 0.62 | 0.582 | 0.567 | 0.617 | 0.579 | – | – | – | – | – | – | – | – | – | –
NCI-H2342 | – | – | – | – | – | 0.495 | 0.591 | 0.674 | 0.606 | 0.614 | 0.425 | 0.487 | 0.44 | 0.513 | 0.432 | 0.483 | 0.479 | 0.707 | 0.537 | 0.365
COR-L23 | 0.846 | 0.861 | 0.751 | 0.68 | 0.23 | 0.355 | 0.49 | 0.467 | 0.465 | 0.377 | 0.402 | 0.374 | 0.331 | 0.266 | 0.294 | – | – | – | – | –
EBC-1 | 0.43 | 0.325 | 0.328 | 0.159 | 0.0697 | – | – | – | – | – | 0.744 | 0.674 | 0.683 | 0.666 | 0.26 | – | – | – | – | –
NCI-H1299 | 0.978 | 0.839 | 0.766 | 0.653 | 0.412 | – | – | – | – | – | 0.964 | 0.953 | 1 | 0.98 | 0.883 | – | – | – | – | –
Calu-6 | 0.944 | 0.869 | 0.929 | 0.764 | 0.522 | – | – | – | – | – | 0.545 | 0.503 | 0.522 | 0.484 | 0.332 | – | – | – | – | –
NCI-H1703 | 0.228 | 0.252 | 0.244 | 0.293 | 0.299 | – | – | – | – | – | – | 0.389 | 0.489 | 0.662 | 0.428 | 0.129 | – | 0.159 | 0.132 | 0.134
SK-MES-1 | 0.356 | 0.34 | 0.317 | 0.256 | 0.184 | 0.677 | 0.776 | 0.648 | 0.767 | 0.62 | 0.697 | 0.775 | 0.727 | 0.658 | 0.512 | – | – | – | – | –
SW 1573 | 0.582 | 0.507 | 0.587 | 0.532 | 0.313 | 0.251 | 0.395 | – | 0.484 | 0.382 | 0.634 | 0.477 | 0.587 | 0.603 | 0.349 | – | – | – | – | –
NCI-H1648 | – | – | – | – | – | – | – | – | – | – | 1.19 | 0.762 | 0.665 | 0.748 | 0.294 | 0.643 | 0.601 | 0.676 | 0.638 | 0.625
